The target of series [1] is T1, human alpha 7-wt nAChR-expressing GH4C1 cells (Homo sapiens, UniProt P36544).
T1 construct: expressed in transfected cells
The series can be described thus: Patch-clamp current recording (whole-cell voltage-clamp, PAM type classification). Details: key: Type 0 compounds minimally change the effect size of the current elicited by 1 mM choline.; Type 1 compounds enhance the effect size of the current elicited by 1 mM choline but minimally alter the kinetics of the receptor.; Type 2 compounds enhance the effect size of the current elicited by 1 mM choline while reducing the rate and/or the extent of desensitization.; Type 3 compounds enhance the effect size of the current elicited by 1 mM choline. When tested at higher concentrations up to 10 μM they completely inhibit desensitization; Type 4 compounds allow for an initial desensitization of the receptor followed by a re-opening of the receptor during agonist application. Format: cell-based. The settings on record: 1 mM choline. The method, boiled down:
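Whole-cell voltage clamp of GH4C1 cells stably expressing human wild-type α7 nAChR, with compound co-applied with 1 mM choline via rapid (<100 ms) solution switching; external pH 7.3, CsCl-based internal solution, 1.5-3 MΩ electrodes. PAM type (0-4) assigned from current kinetics when peak potentiation reached ≥200% of control choline response.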
For orientation: The patch-clamp technique gives a direct electrical read-out from membranes.

T1 sequence (P36544 23-502): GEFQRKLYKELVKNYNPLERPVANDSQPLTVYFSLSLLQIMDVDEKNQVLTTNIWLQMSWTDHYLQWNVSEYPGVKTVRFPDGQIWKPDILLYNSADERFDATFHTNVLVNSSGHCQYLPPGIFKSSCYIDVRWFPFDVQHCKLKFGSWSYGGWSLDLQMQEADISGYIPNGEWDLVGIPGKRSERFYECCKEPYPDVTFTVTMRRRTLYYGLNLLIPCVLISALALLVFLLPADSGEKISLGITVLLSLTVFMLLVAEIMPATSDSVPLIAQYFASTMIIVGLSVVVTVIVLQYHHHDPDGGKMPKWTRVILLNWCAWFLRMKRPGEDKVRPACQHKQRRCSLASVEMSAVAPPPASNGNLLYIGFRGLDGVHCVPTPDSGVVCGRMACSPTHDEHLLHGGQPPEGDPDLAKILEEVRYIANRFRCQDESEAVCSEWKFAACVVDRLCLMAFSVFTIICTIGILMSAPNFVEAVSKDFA

As for `Cc1cc(-c2sc(N3C[C@@H](C)O[C@@H](C)C3)nc2CNC(=O)c2conc2C)cc(C)n1` [Compound 18, N-[[2-[(2R,6S)-2,6-dimethyl-4-morpholinyl]-5-(2,6-dimethyl-4-pyridinyl)-4-thiazolyl]methyl]-3-methyl-4-isoxazolecarboxamide], the melting point was determined as 141 °C. In series [1], the “PAM_Type PAM type” value is given as 2.

In the case of `Cc1cc(-c2sc(N3C[C@@H](C)O[C@@H](C)C3)nc2CNC(=O)CC2CC2)cc(C)n1` [Compound 1, N-[[2-[(2R,6S)-2,6-dimethyl-4-morpholinyl]-5-(2,6-dimethyl-4-pyridinyl)-4-thiazolyl]methyl]-cyclopropaneacetamide], the melting point worked out at 174 °C. The “PAM_Type PAM type” value in series [1] came to 2.

The melting point is the temperature of the solid-liquid transition.
